Literature values, collected in article PMC8880268, “Magnolol and Luteolin Inhibition of α-Glucosidase Activity: Kinetics and Type of Interaction Detected by In Vitro and In Silico Studies” (Pharmaceuticals, 2022).
pIC50: −log10 of the molar value.

Tested on: α-glucosidase
Conditions: cited from earlier work; for type of inhibition (inhibition kinetic assays): ref 19; for pIC50: studied with 0.5 µM of α-glucosidase ref 19

SMILES | type of inhibition (inhibition kinetic assays) | pIC50
O=c1c(O)c(-c2ccc(O)c(O)c2)oc2cc(O)cc(O)c12 [compound 2, quercetin] | non-competitive inhibitors | –
O=C(OC1C(O)C(CO)OC(Oc2c(-c3ccc(O)c(O)c3)oc3cc(O)cc(O)c3c2=O)C1O)c1cc(O)c(O)c(O)c1 (stereo not shown) [compound 3] | non-competitive | 6.01
O=C(OC[C@@H]1O[C@@H](Oc2c(-c3ccc(O)c(O)c3)oc3cc(O)cc(O)c3c2=O)[C@@H](O)[C@H](O)[C@@H]1O)c1cc(O)c(O)c(O)c1 [compound 4] | non-competitive inhibitor | 5.87
O=C(OC[C@@H]1O[C@@H](Oc2c(-c3ccc(O)c(O)c3)oc3cc(O)cc(O)c3c2=O)[C@@H](O)[C@H](O)[C@H]1O)c1cc(O)c(O)c(O)c1 [compound 5] | competitive inhibitor | 4.56
